Measured values published in US5565424A, “Superactive VIP antagonists” (Ramot - University Authority for Applied Research and …, priority 1994, dated 1996).
Non-standard residues stand in square brackets, D forms with d. Residues, ends and D or L forms follow the SMILES beside them. Nle = CCCC[C@H](N)C(=O)O

Key:
NCI-H226 = conditions: for NSCLC colony formation (colonies): NCI-H226, 1 μM addition, control 43.1 ± 5.7
[1] = test system: non-small cell lung cancer (NSCLC) cell lines; assay: NSCLC colony formation / cell growth, statements across cell lines
NCI-H727 = conditions: for NSCLC colony formation (colonies): NCI-H727, 1 μM addition, control 35.2 ± 2.3
[2] = test system: neuroblastoma (NMB) cells; assay: Neuroblastoma (NMB) cell division by cell counts; format: cell-based, human
Procedure: FIG. 5. […] Neuroblastoma (NMB) cells have been grown in culture using RPMI-1640 medium supplemented with 10% fetal calf serum and gentamicin (100 μl of 40 mg/ml stock solution per 100 mL medium) in a humidified atmosphere of 5% CO2, 95% air. Cells were harvested with Puck's saline containing 0.25% trypsin and 0.02M EDTA every four days, centrifuged and seeded in 60 mm diameter tissue culture dishes (CORNING) at a density of 0.6-0.7×10^6 cells per dish.
For mitogenic assays, human NM cells were seeded in 35 mm diameter tissue culture dishes (CORNING) at a density of 0.2×10^6 cells per dish in RPMI-1640 medium plus 10% fetal calf serum. […] Cell counts were performed with a hemocytometer, using trypan blue staining for viability, on the second day (24 hours) after the VIP treatment. Results shown on the graph are cell/dish×1000. Error bars represent the standard error. Three-six replicates were counted for each data point and experiments were repeated three independent times.

[3] = test system: c-fos mRNA in NCIH810 cells; assay: c-fos mRNA assay; format: cell-based
Procedure: In addition, the ability of VIP and the S-hybrid VIP antagonist to stimulate c-fos mRNA was examined; c-fos mRNA is a marker for cancer cell proliferation. […] This is true regardless of whether the VIP antagonist is co-administered with VIP or added by itself (See, Table IV, infra).
^a NCIH810 cells were treated with the peptide and the cfos mRNA
determined after 1 hour.
For the c-fos experiments, SCLC cells were cultured with SIT medium containing 0.5% fetal bovine serum. After 4 hours, the cells were treated with stimuli such as 10 nM BN for 60 min. Total RNA was isolated using the guanidinium isothiocyanate (GIT) method. Ten μg of denatured RNA was separated in a 0.66M formaldehyde 1% agarose gel as previously described. The gel was treated with ethidium bromide tp assess RNA integrity. The RNA was blotted onto a nitrocellulose membrane overnight and the membrane hybridized with a c-fos probe labelled with ^32 P-dCTP using a Bethesda Research Laboratories random priming kit. The membrane was exposed to Kodax XAR-2 film at […] for 1 day and the autoradiogram developed. The autoradiogram were analyzed using a Molecular Dynamics densitometer.

[4] = test system: neuroblastoma (NMB) cells; assay: Thymidine incorporation into neuroblastoma (NMB) cells; format: cell-based, human; conditions: 24 hours incubation, one day after seeding; read-out: EC50, stimulation of thymidine incorporation into NMB cells
[5] = test system: VIP receptors on neuroblastoma (NMB) cells; assay: VIP binding and displacement on intact neuroblastoma (NMB) cells; set-up: species or system human
Procedure: Alternatively, the VIP was iodinated according to the procedure described by Werner, et al. (Biochem. Biophys. Res. Commun., 133:228-232 (1985)). […] Experiments were repeated at least three times, each containing triplicates, error bars represent the standard error. Cells were grown for 24 hours (circles) and 48 hours (triangles). […] The binding parameters were determined by ACCUFIT program, Lundon-2 competition analysis (LUNDON software Inc., Chargin Falls, Ohio, U.S.A.). […] The calculated Bmax was 6×10^-14 moles/mg and 1.5×10^-14 moles/mg for cells grown for 24 hours as compared to cells grown for 48 hours, respectively.

NCI-H1299 = conditions: for NSCLC colony formation (colonies): NCI-H1299, 1 μM addition, control 29 ± 3.1
[6] = test system: cAMP (low affinity) VIP receptor on astroglia cells; assay: Displacement of 125I-VIP from astroglia cells; conditions: central nervous system, FIGS. 2 and 3
[7] = test system: Sprague-Dawley rat pups, locomotive activity rhythm; assay: Circadian motor activity rhythms after chronic injection; format: in vivo; conditions: 5 μg/day subcutaneous, 28 days, newborn rat pups
Procedure: FIGS. 4(A-J). VIP antagonism disturbed the biological clock via a cAMP-mediated mechanism. Newborn rat pups (Sprague-Dawley, locally bread, Yoxheam, Israel) were chronically injected with VIP analogues (5 μg of each analogue/50 μl/day, subcutaneous), for 28 consecutive days. The vehicle of injection was either 0.01M acetic acid or 15% dimethylsulfoxide (for the lipophilic peptides). On day 21, the animals were placed each one in a separate cage and their locomotive activity was continuously measured. The pattern of locomotive activity was measured using an animal monitoring system with an infrared detector for 7 days (A, C, E, G, I). The spectral periods of rhythm in the activity data was detected by a special statistical method because of the short computer sampling period. […]
Animals were each placed in a separate cage and motor activity was continuously recorded for 6-9 days, using an animal monitoring system with an infrared detector. Spectral analysis of motor activity rhythms is then determined by the fitting of different cosine curves to the activity data (see, Mattes, et al., Chronobiology Int'l, 8:460 (1991)).

[8] = test system: dissociated mouse spinal cord cultures (neurons); assay: Neuronal survival in dissociated spinal cord cultures; format: cell-based
[9] = test system: VIP-stimulated cAMP formation in astrocytes; assay: VIP-stimulated cAMP formation in cortical astrocyte cultures; format: cell-based, rat; conditions: 1 μM VIP, FIG. 2
Procedure: FIG. 2. VIP-stimulated cAMP formation was inhibited in the presence of the family of VIP antagonists. Cortical astrocyte cultures were incubated for 10 min with 1 μm VIP and cAMP accumulation was determined by radioimmunoassay (Gozes, et al., J. Pharmacol. & Exp. Therap., 257:959 (1991)). Increasing concentrations of the antagonists were placed in the astrocyte cultures 5 minutes prior to the addition of VIP. Astrocytes were maintained in 35 mm tissue culture dishes with 0.3 mg protein per dish. Each value is the mean of 8-10 determinations from 4 experiments. […] The error bar is the SEM.
In view of the foregoing, astroglia cells were utilized to compare the effects the VIP antagonists of the present invention have on VIP-stimulated cAMP formation. For cAMP determinations, the general protocols involve either the measurement of adenylate cyclase activity or, the use of radioimmunoassays for cAMP which utilize a cAMP determination kit from NEN (New England Nuclear, Boston, Mass.)36 previously described by Gozes, et al. (J. Pharmacol. Exp. Therap., 257:959 (1991)). An HCl (0.05M) extract neutralizecl with 0.5M NaOH may be utilized for the tests.
Rat astrocytes were maintained in cell culture as described above. The accumulation of cAMP was measured by radio-immunoassay (NEN kit, New England Nuclear) from cold trichloro acetic acid extracts (Evans et al., supra, 1984). […]

For `CC[C@H](C)[C@H](NC(=O)[C@H](CO)NC(=O)[C@H](CC(N)=O)NC(=O)[C@H](CC(C)C)NC(=O)[C@H](Cc1ccc(O)cc1)NC(=O)[C@H](CCCCN)NC(=O)[C@H](CCCCN)NC(=O)[C@@H](NC(=O)[C@H](C)NC(=O)[C@H](CCSC)NC(=O)[C@H](CCC(N)=O)NC(=O)[C@H](CCCCN)NC(=O)[C@H](CCCNC(=N)N)NC(=O)[C@H](CC(C)C)NC(=O)[C@H](CCCNC(=N)N)NC(=O)[C@@H](NC(=O)[C@H](Cc1ccc(O)cc1)NC(=O)[C@H](CC(N)=O)NC(=O)[C@H](CC(=O)O)NC(=O)[C@@H](NC(=O)[C@H](Cc1ccccc1)NC(=O)[C@@H](NC(=O)[C@H](C)NC(=O)[C@H](CC(=O)O)NC(=O)[C@H](CO)NC(=O)[C@@H](N)Cc1c[nH]cn1)C(C)C)[C@@H](C)O)[C@@H](C)O)C(C)C)C(=O)N[C@@H](CC(C)C)C(=O)N[C@@H](CC(N)=O)C(N)=O` [VIP, Vasoactive intestinal polypeptide], the “NSCLC colony formation (colonies)” value (NCI-H226) was 87.4 ± 4.8, the “stimulation of NSCLC colony formation in agar” value ([1]; index of cell growth) was 2-3 fold and the “NSCLC colony formation (colonies)” value (NCI-H727) was 115 ± 22.7. The EC50 ([2]; 24 hour VIP treatment, added one day after seeding, read-out: EC50, stimulation of NMB cell division by cell counts) was 500 nM, the “mitosis when added 48 hours after plating” value ([2]; additional 24 hours incubation) was “did not stimulate mitosis” and the “concentration at peak of mitogenic activity” value ([2]; cell counts and thymidine incorporation, decreased thereafter) was 1 µM. The “c-fos mRNA” value ([3]; 10 nM, NCIH810 cells, after 1 hour, NONE = 1.0) was 5.6, the “effect on c-fos mRNA (in words)” value ([3]; antagonist co-administered with VIP or added by itself) was “stimulates c-los mRNA” and the EC50 [4] was 500 nM. For the same compound, the “fold higher affinity in younger cells (24 hrs) compared with older cells (48 hrs)” value [5] was “about 10 fold” and the “NSCLC colony formation (colonies)” value (NCI-H1299) was 55.8 ± 19.8.

With `CCCC[C@H](NC(=O)[C@H](CCC(N)=O)NC(=O)[C@H](CCCCN)NC(=O)[C@H](CCCNC(=N)N)NC(=O)[C@H](CC(C)C)NC(=O)[C@H](CCCNC(=N)N)NC(=O)[C@@H](NC(=O)[C@H](Cc1ccc(O)cc1)NC(=O)[C@H](CC(N)=O)NC(=O)[C@H](CC(=O)O)NC(=O)[C@@H](NC(=O)[C@H](Cc1ccc(O)cc1)NC(=O)[C@@H]1CCCN1C(=O)[C@H](CCCNC(=N)N)NC(=O)[C@H](CCCNC(=N)N)NC(=O)[C@@H]1CCCN1C(=O)[C@@H](N)CCCCN)[C@@H](C)O)[C@@H](C)O)C(=O)N[C@@H](C)C(=O)N[C@H](C(=O)N[C@@H](CCCCN)C(=O)N[C@@H](CCCCN)C(=O)N[C@@H](Cc1ccc(O)cc1)C(=O)N[C@@H](CC(C)C)C(=O)N[C@@H](CC(N)=O)C(=O)N[C@@H](CO)C(=O)N[C@H](C(=O)N[C@@H](CC(C)C)C(=O)N[C@@H](CC(N)=O)C(N)=O)[C@@H](C)CC)C(C)C` [NL-hybrid VIP antagonist] (H-KPRRPYTDNYTRLRKQ[Nle]AVKKYLNSILN-NH2) the “inhibition of cell growth” value (NCI-H226) was 92%, the “NSCLC colony formation (colonies)” value (NCI-H226) was 3.5 ± 2.5 and the “affinity for the cAMP (low affinity) VIP receptor (in words)” value [6] was “has an affinity for both”. The “potency relative to the hybrid antagonist in inhibiting tumor cell growth” value ([1]; two out of three NSCLC cell lines) was “ten-fold more potent”, the “inhibition of cell growth” value (NCI-H727) was 88% and the “NSCLC colony formation (colonies)” value (NCI-H727) was 4.2 ± 3.1. For the same compound, the “effect on 24 hours periodicity of activity rhythm” value [7] was “abolished this 24 hours periodicity”, the “overall activity of the animals” value [7] was “overall increase in the activity” and the “fold more potent than the hybrid VIP antagonist at inducing neuronal cell death” value [8] was 10 fold. The “affinity for the VIP-neuronal survival associated receptor (in words)” value ([8]; central nervous system, FIG. 1) was “has an affinity for both”, the “concentration of maximal effect on neuronal cell death” value ([8]; spinal cord cultures, FIG. 1) was 10^-10 M and the “inhibition of cell growth” value (NCI-H1299) was 100%. For the same compound, the “NSCLC colony formation (colonies)” value (NCI-H1299) was 0 and the “inhibition of VIP-induced cAMP formation (in words)” value [9] was “effectively inhibits VIP-induced cAMP formation”.
